Assay results as given in paper PMC12274739, “Differential substrate degradation by super-degron: EGFP in wild-type mouse cells, PD-1 requires CRBN humanization” (iScience, 2025).
Several values for one entry are separate records, joined by “and”; a condition that tells them apart may be missing. Equal values may be shown once. Read-outs that look alike come from different tables or passages of the source.

Key:
[1] = test system: EGFP-SD; assay: Degradation of stably expressed EGFP-SD in rat ESCs
[2] = test system: mouse PD-1-SD; assay: Linker evaluation of mouse PD-1-SD in Jurkat cells; assay type: cell-based, human; details: PD-1-SD with a linker, 1 µM iberdomide for 1 day
Description: We used human Jurkat cells as it was difficult to accurately assess exogenous PD-1 expression, as EL4 cells originally expressed mouse PD-1. […] Therefore, the simplest “no linker” construct was adopted for in vivo protein knockdown in mice. Considering that fluorescent proteins affect the degradation efficiency of PD-1,[31] we decided to knock in without a fluorescent protein as a marker. SD was inserted downstream of the endogenous Pdcd1 gene (the gene encoding PD-1) in Crbn^I391V/I391V mice using genome editing (Figures 6A and S5), and double homozygous (Pdcd1^SD/SD/Crbn^I391V/I391V) mice were produced by intercrossing.
Figure S4 Evaluation of linker sequences between PD-1 and super degron tag A Amino acid sequences of various linkers between PD-1 and super degron (SD) tag. Sequences […]
were measured by flow cytometry, and the geometric means of fluorescence intensities (MFI) were calculated. The dots indicate the results of the experiment for each of the three samples.
(§1) (1 picture or pasted object on this page, not shown here)

[3] = parameters: method as in PMID 32969202; details: humans, cited from earlier work
[4] = molecular target: SD-EGFP (Mus musculus, UniProt P42212+Q8C7D2, F64L/H231L/INS1V/S65T, form not given); assay type: cell-based
[5] = test system: EGFP-SD; assay type: cell-based, mouse; details: for Plateau, EGFP-SD degradation: control = 1; for K, EGFP-SD degradation: one phase decay
[6] = Histopathological examination of organs; assay type: in vivo, mouse; details: Pdcd1SD/SD/CrbnI391V/I391V mice with MC-38 inoculation and IBR treatment
Protocol: The important functions of PD-1 are to suppress autoimmunity, and depletion or suppression of PD-1 leads to autoimmune diseases.[37]
Mice were sacrificed under deep anesthesia then all organs were isolated and immediately immersed in 10% buffered neutral formalin. After fixation for 48 h, tissues were processed as formalin-fixed paraffin-embedded blocks and sliced into 3 μmμ sections, followed by hematoxylin and eosin (HE) staining, periodic acid Schiff (PAS) staining, and Elastica-Masson Goldner staining. All slides were analyzed by a skilled pathologist (T.M.). Glomerular lesions were evaluated using the histological glomerular index, and other organs were scored from 0 (normal) to 3 (necrotic, severe organ injury).
Figure S11 Histological analysis of super degron tag-knockin mice for autoimmune […]
Representative histological manifestations of kidney (A-C), liver (D-F) and large intestine (G-I) of Pdcd1SD/SD/CrbnI391V/I391V mice (A, D and G), Pdcd1+/+/CrbnI391V/I391V mice (B, E and H) and […]
Liver and large intestine manifested normal histological findings in each group (A-C: PAS stain, d-i: HE stain, Bar = 25 µm in A-C, 100 µm in D-I).
as §1
Figure S12 Glomerular index of super degron tag-knockin mice
Glomerular index of each group of mice. […]
higher index nevertheless there were no statistically significant differences among

[7] = test system: Ba/F3 mouse pro-B cell line; parameters: method as in PMID 38484051; details: cited from earlier work
[8] = mouse wild-type cell lines, independent of IBR concentration

With O=C1CC[C@H](N2Cc3c(OCc4ccc(CN5CCOCC5)cc4)cccc3C2=O)C(=O)N1 [IBR, iberdomide] the DC50 ([1]; read-out: DC50, EGFP-SD, stable) was 140 pM, the “Bottom, EGFP-SD” value ([1]; stable) was 0.0497 and the “bottom vs top, EGFP-SD” value ([1]; stable, IBR up to 1 μM) was 0.083. For the same molecule, the PD-1 expression [2] was “significantly reduced”, the “IBR present after 24 h, of the maximum concentration” value ([3]; multiple doses) was “about 20%” and the “time of serum concentration peak” value ([3]; oral, single and multiple once-daily doses) was 3 h. The “serum concentration with multiple doses compared to a single dose” value [3] was “doubles”, the “bottom vs top, SD-EGFP” value [4] was 0.186 and 0.153 and 0.146 and 0.15 and 0.19 and the “level to which SD-EGFP was suppressed” value [4] was 20%. For the same molecule, the “Tau, EGFP-SD degradation” value ([5]; EL4, 0.01 µM IBR) was 0.5057, the “Plateau, EGFP-SD degradation” value ([5]; EL4, 0.01 µM IBR) was 0.106 and 0.11 and the “K, EGFP-SD degradation” value ([5]; EL4, 0.01 µM IBR) was 1.978. The “Tau, EGFP-SD degradation” value ([5]; EL4, 0.1 µM IBR) was 0.4779, the “Plateau, EGFP-SD degradation” value ([5]; EL4, 0.1 µM IBR) was 0.0948 and the “K, EGFP-SD degradation” value ([5]; EL4, 0.1 µM IBR) was 2.093. For the same molecule, the “Tau, EGFP-SD degradation” value ([5]; EL4, 1 µM IBR) was 0.4762, the “Plateau, EGFP-SD degradation” value ([5]; EL4, 1 µM IBR) was 0.09035 and the “K, EGFP-SD degradation” value ([5]; EL4, 1 µM IBR) was 2.1. For the same molecule, the “Tau, EGFP-SD degradation” value ([5]; NIH/3T3, 0.01 µM IBR) was 0.5217, the “Plateau, EGFP-SD degradation” value ([5]; NIH/3T3, 0.01 µM IBR) was 0.1206 and 0.12 and the “K, EGFP-SD degradation” value ([5]; NIH/3T3, 0.01 µM IBR) was 1.917. The “Tau, EGFP-SD degradation” value ([5]; NIH/3T3, 0.1 µM IBR) was 0.4536, the “Plateau, EGFP-SD degradation” value ([5]; NIH/3T3, 0.1 µM IBR) was 0.09879 and the “K, EGFP-SD degradation” value ([5]; NIH/3T3, 0.1 µM IBR) was 2.205. The “Tau, EGFP-SD degradation” value ([5]; NIH/3T3, 1 µM IBR) was 0.4422, the “Plateau, EGFP-SD degradation” value ([5]; NIH/3T3, 1 µM IBR) was 0.0887 and the “K, EGFP-SD degradation” value ([5]; NIH/3T3, 1 µM IBR) was 2.261. The “Tau, EGFP-SD degradation” value ([5]; mESCs, 0.01 µM IBR) was 0.9013, the “Plateau, EGFP-SD degradation” value ([5]; mESCs, 0.01 µM IBR) was 0.1599 and 0.16 and the “K, EGFP-SD degradation” value ([5]; mESCs, 0.01 µM IBR) was 1.11. For the same molecule, the “Tau, EGFP-SD degradation” value ([5]; mESCs, 0.1 µM IBR) was 0.8006, the “Plateau, EGFP-SD degradation” value ([5]; mESCs, 0.1 µM IBR) was 0.1092 and the “K, EGFP-SD degradation” value ([5]; mESCs, 0.1 µM IBR) was 1.249. For the same molecule, the “Tau, EGFP-SD degradation” value ([5]; mESCs, 1 µM IBR) was 0.8069, the “Plateau, EGFP-SD degradation” value ([5]; mESCs, 1 µM IBR) was 0.09822 and the “K, EGFP-SD degradation” value ([5]; mESCs, 1 µM IBR) was 1.239. The “time after which EGFP-SD expression was minimal” value ([5]; mESCs, NIH/3T3, EL4) was 6 h, the “time to halve the amount of EGFP-SD” value [5, 8] was 20 to 40 min and the “time to reduce EGFP-SD to 10%” value [5, 8] was “approximately 3 h”. The histopathological organ injury [6] was “no significant organ injury”.
For Nc1cccc2c1C(=O)N(C1CCC(=O)NC1=O)C2=O (centres unmarked) [POM, pomalidomide], the proteins reduced [7] is given as “very few proteins”.
